Source: patent US11985994B2, “Sweetener and flavor compositions, methods of making and methods of use thereof” (EPC Natural Products Co., Ltd., priority 2018, dated 2024)
Read-outs that look alike come from different tables or passages of the source. Residues, ends and D or L forms follow the SMILES beside them.

Legend:
[1] = Sensory evaluation (smell, color, taste) of Maillard reaction samples, Examples 52, 55-63; design: species or system human; conditions: before reaction, 10 ml KH2PO4 pH 7.8 (Example 57)
[2] = as above; design: species or system human
Method: For evaluation of the taste profile, the samples were tested by a panel of four people. 1 trained taster tasted independently the samples first. The taster was asked to describe the taste profile and score 0-5 according to the increasing sugar likeness, bitterness, aftertaste and lingering taste profiles. The first taster was allowed to re-taste, and then make notes for the sensory attributes perceived. Afterwards, another 3 tasters tasted and the attributes were noted and discussed openly to find a suitable description. In case that more than 1 taster disagreed with the results, the tasting was repeated. In some sensory test results (above), the taste rating was expressed by “+”, which means the intensity of the factors is shown by three levels. “+” for slight, “++” for moderate and “+++” for very strong.
All samples were assessed at 22° C. after the Maillard reaction was stopped by placing the sealed vials in an ice bath. After 20 minutes in the ice bath the sealed vials were put in a water bath set to 22° C.
The odor/smell was assessed independently by 3 persons; the final description was agreed after discussion. […] The taste was assessed independently by 3 persons either in the original samples or after appropriate dilution to achieve relevant concentrations of sugars and steviol-glycosides (i.e. 5-9% SE); the final description was agreed after discussion.

[3] = cited from earlier work
[4] = Degree of kokumi of Tamarind gum solution (Example 189); design: species or system human
Method: Tamarind gum was added to pure water to prepare several Tamarind gum solutions with a concentration gradient as standard solutions for judging the degree of kokumi of the Tamarind gum solutions.
A Tamarind gum solution was prepared at a concentration of 400 ppm. Different amounts of MRP, S-MRP or TS-MRP were added to the solution such that the concentration of MRP, S-MRP or TS-MRP in the solution was 50 ppm, 75 ppm, 100 ppm, 125 ppm or 150 ppm.
(§1) Method: For evaluation of the degree of kokumi, the sample solutions (described above) were tested by a panel of four people. The panel was asked to taste the sample solutions and compare them to standard solutions (described above) to judge to which standard solution the degree of kokumi of sample solution is similar 1 trained taster tasted independently the samples first. The tester was allowed to re-taste, and then made judgment. Afterwards, another 3 tasters tasted and the judgments were discussed openly to find a suitable description. In the case that more than 1 taster disagreed with the result, the tasting was repeated.

[5] = HPLC/DAD/MS analysis of reaction partners and MRI (Amadori) products; format: physicochemical; conditions: 120 °C; for consumption in the reaction with Phe: KH2PO4 pH 7.8, 2.5 h, glucose present or not
Method: Quantitative evaluation was performed using external standardization.

[6] = Degree of kokumi of carrageenan solution (Example 187); design: species or system human
Method: Carrageenan was added to pure water to prepare several carrageenan solutions with a concentration gradient as standard solutions for judging the degree of kokumi of the carrageenan solutions.
A carrageenan solution was prepared at a concentration of 400 ppm. Different amounts of MRP, S-MRP or TS-MRP were added to the solution such that the concentration of MRP, S-MRP or TS-MRP in the solution was 50 ppm, 75 ppm, 100 ppm, 125 ppm or 150 ppm.
as §1, with “judge” for “judge to”, “similar to.” for “similar”, “description in” for “description. In”

[7] = Assay to test DPPH radical-scavenging activity (Example 65); format: physicochemical; conditions: combinations of amino acids and Reb-A, 100 °C; less pronounced than glucose or xylose
Method: 1 mg 1,1-Diphenyl-2-picrylhydrazyl radical (DPPH)/ml ethanol, dilution to assay concentration were prepared in ethanol (40 μg/mL); Calibration samples were prepared with Ascorbic acid in a concentration of 0-10 μg/mL, as a negative control sample, water was used.
Samples in aqueous solution were used as such or diluted with water.
A 0.1 ml sample (or calibration standard) was mixed with 3.9 ml solution of DPPH (100 μMolar) and reacted while protected from light at room temperature for 30 min. Absorbance was determined at 517 nm against ethanol.
10 mM of amino acid and/or 10 mM sugar were dissolved in 10 ml 0.1 mM KH2PO4-buffer, pH=7.8.
The samples were kept at 100° C. in sealed glass vials (Pyrex 15 ml with screw caps) for 0 (before reaction), 2.5 or 5.0 hours. Thereafter the samples were transferred to an ice water bath and cooled down to room temperature. These samples were diluted 1:10 and used for the test assay for anti-oxidant potential.

[8] = Degree of kokumi of gellan gum solution (Example 188); design: species or system human
Method: Gellan gum was added to pure water to prepare several gellan gum solutions with a concentration gradient as standard solutions for judging the degree of kokumi of the gellan gum solutions.
A gellan gum solution was prepared at a concentration of 400 ppm. Different amounts of MRP, S-MRP or TS-MRP were added to the solution such that the concentration of MRP, S-MRP or TS-MRP in the solution was 50 ppm, 75 ppm, 100 ppm, 125 ppm or 150 ppm.
as §1

[9] = Sensory evaluation of GSGs and SGs, thaumatin, NHDC and combinations (Example 255); design: species or system human
Method: 4.5 ppm Thaumatin (equivalent to 10 ppm EPCalin) was dissolved in water. Increasing amounts of NHDC (1-5 ppm) were added to the solution and the sensory properties were evaluated.
50 ppm (GSGs and SGs) were dissolved in water. Increasing amounts of NHDC (1-5 ppm) were added to the solution and the sensory properties were evaluated.
50 ppm (GSGs and SGs) and 4.5 ppm Thaumatin (equivalent to 10 ppm EPCalin) were dissolved in water. Increasing amounts of NHDC (1-5 ppm) were added to the solution and the sensory properties were evaluated.
Sweetness intensity was rated on 5-point scale

[10] = after reaction, 10 ml KH2PO4 pH 7.8, 2.5 h, 120 °C (Example 58)
[11] = before reaction, 10 ml KH2PO4 pH 7.8 (Example 58)
[12] = negative controls (no carbohydrate source), 10 ml glycerin/water, 100 °C, 40 minutes
[13] = depends on the tested concentration compared with sucrose
[14] = after reaction, 10 ml KH2PO4 pH 7.8, 2.5 h, 120 °C (Example 57)
[15] = 1 ml water + 9 ml Glycerin, 2.0 h, 120 °C

With `N[C@@H](Cc1ccccc1)C(=O)O` [16.5 mg Phe, Phenylalanine] the Color [1] was “No color”, the Smell [1] was “neutral” and the Taste [1] was “No taste”. The Color [2, 10] was “Slightly Yellow”, the Smell [2, 10] was “Caramel, burnt” and the Taste ([2]; after reaction, after dilution 1:20 (Example 58)) was “Sweet”. The Color [2, 11] was “No color”, the Smell [2, 11] was “Neutral” and the Taste ([2]; before reaction, after dilution 1:20 (Example 58)) was “No taste”. For the same compound, the Color [2, 12] was “Very Slightly”, the Smell [2, 12] was “Bloomy, caramel” and the Taste [2, 12] was “Slightly sweet”.

For `OC[C@H]1O[C@H](O[C@]2(CCl)O[C@H](CCl)[C@@H](O)[C@@H]2O)[C@H](O)[C@@H](O)[C@H]1Cl` [sucralose], the sweetness [3, 13] is given as “about 600 times sweeter than sucrose”.

For `COC(=O)[C@H](Cc1ccccc1)NC(=O)[C@@H](N)CC(=O)O` [Aspartame] (H-Asp-Phe-OMe), the sweetness [3, 13] is listed as 160-200 times sweeter than sucrose.

In the case of Tamarind gum, the “concentration above which taste like starch paste is clearly felt” value [4] is reported as “exceeds 1400 ppm”.

In the case of `O=C[C@H](O)[C@H]1OC(=O)[C@@H](O)[C@H]1O` [Glucuronolactone], the Color [2, 14] is reported as “Deep Yellow”, the Smell [2, 14] is reported as “Burnt sugar” and the Taste [2, 14] is reported as “Bitter”. The “consumption in the reaction with Phe” value [5] was “completely consumed”.

With carrageenan the “concentration above which taste like starch paste is clearly felt” value [6] was “exceeds 1000 ppm”.

For `C=C1C[C@@]23CC[C@H]4[C@@](C)(CCC[C@@]4(C)C(=O)O[C@@H]4O[C@H](CO)[C@@H](O)[C@H](O)[C@H]4O)[C@@H]2CC[C@]1(O[C@@H]1O[C@H](CO)[C@@H](O)[C@H](O[C@@H]2O[C@H](CO)[C@@H](O)[C@H](O)[C@H]2O)[C@H]1O[C@@H]1O[C@H](CO)[C@@H](O)[C@H](O)[C@H]1O)C3` [Reb-A, Rebaudioside A], the anti-oxidant properties [7] was “substantial anti-oxidant properties”.

In the case of MoneIlin, the Sweetness by weight ([3]; compared to sucrose) is given as 800-2,000.

For gellan gum, the “concentration above which taste like starch paste is clearly felt” value [8] was “exceeds 1400 ppm”.

For `COc1ccc(CCC(=O)c2c(O)cc(O[C@@H]3O[C@H](CO)[C@@H](O)[C@H](O)[C@H]3O[C@@H]3O[C@@H](C)[C@H](O)[C@@H](O)[C@H]3O)cc2O)cc1O` [NHDC, Neohesperidin dihydrochalcone], the sweetness ([3]; at threshold concentrations) is given as 1500-1800 times sweeter than sugar, the sweetness ([3]; weight-for-weight) is given as “about 340 times sweeter than sugar” and the lingering ([9]; 4, 5 ppm added to 50 ppm GSGs and SGs and 4.5 ppm Thaumatin) is given as “boosts the lingering”. The lingering ([9]; 4 and 5 ppm added to 4.5 ppm Thaumatin in water) was “long lasting lingering”.

For `O=C[C@H](O)[C@@H](O)[C@H](O)[C@H](O)C(=O)O` [18 mg Glucuronic Acid, Glucuronic Acid], the Color [1] was “No color”, the Smell [1] was “neutral” and the Taste [1] was “No taste”.

For `O=C[C@H](O)[C@H]1OC(=O)[C@@H](O)[C@H]1O` [0.1 mMol GlucLac, Glucuronolactone], the Color [2, 15] was “Almost black”, the “Intensity of Smell” value [2, 15] was “+++” and the Smell [2, 15] was “Burnt sugar”. The Taste [2, 15] was “Bitter”.

In the case of `O=S(=O)([O-])NC1CCCCC1.[Na+]` [sodium cyclamate], the sweetness [3, 13] is listed as “about 30 times sweeter than sucrose”.

In the case of `O=C[C@H](O)[C@@H](O)[C@H](O)[C@H](O)C(=O)O` [Glucuronic Acid], the Color [2, 14] is reported as “Deep Yellow”, the Smell [2, 14] is reported as “burnt bread” and the Taste [2, 14] is reported as “Bitter”. For the same compound, the “consumption in the reaction with Phe” value [5] was “completely consumed”.

With `O=C[C@H](O)[C@@H](O)[C@H](O)CO` [Xyl, Xylose] the “% degradation” value ([5]; Phe + Xyl, pH = 7.0, 1.0 h) was 6.3%.
